# Measured values from patent publication US10617695B2, “Ophthalmic compositions containing alcaftadine” (Vistakon Pharmaceuticals, LLC, priority 2006, dated 2020).
# Columns and labels:
# [1] = Systemic (plasma) levels of the carboxylic acid in patients; type: in vivo, human; settings: for Cmax: plasma, other: ophthalmic solution, bilateral instillation, 0.25 % ophthalmic solution, 0.25% ophthalmic solution bilaterally
# Protocol: Patients were bilaterally dosed with 0.25% ophthalmic solutions of 6,11-dihydro-11-(1-methyl-4-piperdinylidene)-5H-imidazo[2,1-b][3]benazepine-3-carboxylic acid for seven days. The plasma levels of those patients was assessed pre-dose, and 0.25, 0.5, 1, 1.5, 2, 3, 4, 6, 8, 12, and 18 hour post medication instillation on days one and seven.
# [2] = molecular target: T1, human histamine H4 receptor (Homo sapiens, UniProt Q9H3N8); test: H4 receptor agonist assay: inhibition of forskolin-induced cAMP (reporter gene) in transfected SK-N-MC cells; type: cell-based
# T1 construct: express a reporter gene construct and the human H4 receptor full-coding region; expressed in transfected cells; host or cells: SK-N-MC cells with a CRE-beta-galactosidase reporter
# Protocol: (§1) Alcaftadine and 6,11-dihydro-11-(1-methyl-4-piperdinylidene)-5H-imidazo[2,1-b][3]benazepine-3-carboxylic acid (CAS #147083-93-0) were prepared at 10 mM in 100% dimethylsulfoxide (DMSO) for the binding assays and at 10 mM in Na/K phosphate buffer, pH 7.0, for the cellular assays. Cell pellets from SK-N-MC cells transfected with human H4 receptor were homogenized in 20 mM Tris-HCl/0.5 mM ethylendediaminetetraacetic acid (EDTA) pH 8.0 (TE buffer). Supernatants collected after centrifugation at 800 g were recentrifuged at 30,000 g for 30 min. Pellets were re-homogenized in TE buffer. […] Non-specific binding was defined with 100 μM cold histamine. […] Seven concentrations of compound were tested spanning 10^−11 to 10^−5 M with each concentration being run in triplicate. […] This assay was run twice and the results are reported as the average of the two runs. SK-N-MC cell lines were created that express a reporter gene construct and the human H4 receptor full-coding region. […] Color was quantitated on a microplate reader at absorbance 570 nm. […]
# To test whether alcaftadine or 6,11-dihydro-11-(1-methyl-4-piperdinylidene)-5H-imidazo[2,1-b][3]benazepine-3-carboxylic acid (CAS #147083-93-0) were H4 receptor agonists, functional assays were carried out in SK-N-MC cells transfected with the human histamine H4 receptor. The ability of the compounds to inhibit forskolin-induced cAMP increases was assessed.
# [3] = molecular target: T1, human histamine H4 receptor; test: [3H]histamine competition binding to membranes of SK-N-MC cells transfected with human H4 receptor; settings: average of two runs; 10 nM [3H]histamine; Cheng and Prusoff
# [4] = molecular target: T1, human histamine H4 receptor; test: H4 receptor antagonist assay: shift of histamine EC50, Schild plot, in transfected SK-N-MC cells; type: cell-based
# Protocol: as §1, with “region. The reporter gene was β-galactosidase under the control of cyclic adenosine monophosphate (cAMP) responsive elements. Cells were plated in 96-well plates the night before the assay. Antagonists were added 10 min prior to the addition of histamine, which was added directly to the cell medium. Forskolin (5 μM final concentration) was added 10 min after the addition of histamine. Cells were returned to the incubator for 6 h at 37° C. The medium was then aspirated and cells were lysed with 25 μL of 0.1× assay buffer (10 mM sodium phosphate, pH 8, 0.2 mM MgSO4, 0.01 mM MnCl2) and incubated at room temperature for 10 min.” for “region.”
# To test whether alcaftadine or 6,11-dihydro-11-(1-methyl-4-piperdinylidene)-5H-imidazo[2,1-b][3]benazepine-3-carboxylic acid (CAS #147083-93-0) were antagonists of the H4 receptor, the ability of the compounds shift the EC50 of the histamine inhibition of forskolin-induced cAMP increases was assessed in SK-N-MC cells transfected with the human histamine H4 receptor. […]
# [5] = system: RBL-CCR1 (Rat Basophil Leukemia-Chemokine Receptor-1) cell line; test: Mast cell degranulation / cell stabilization in RBL-CCR1 cells; type: cell-based
# Protocol: The cell stabilization potential of alcaftadine was evaluated using the RBL-CCR1 (Rat Basophil Leukemia-Chemokine Receptor-1) cell line as a way of investigating its ability to effect mast cell stabilization. The use of basophil cell lines to assess anti-allergic drugs for cell stabilization potential is well established. Physiologically, basophils are similar to mast cells, containing pre-formed inflammatory mediators that are released through a similar degranulation process involving IgE cross-linking. Because these cell lines are readily available, they present efficiencies over conducting stabilization assays in mast cell lines.
# Cultured RBL-CCR1 cells were sensitized to anti-DNP IgE. Following sensitization, cells were treated with various concentrations of alcaftadine or its major active metabolite (0.083%, 0.0083% and 0.00083%) or ophthalmic vehicle (placebo), and stimulated with DNP and/or MIP-1a (Macrophage Inflammatory Protein-1 alpha, a degranulation enhancer) to induce degranulation. A 10× and 100× placebo control solution (ophthalmic vehicle solution) in D-DEM (Dulbecco's modified Eagle's medium) was also employed.
# However, co-stimulation induced a robust degranulation response.
"maximum plasma concentrations ([1]; human, in vivo) [ng/mL]","Cmax ([1]; human, Day 1) [ng/mL]","Cmax ([1]; human, Day 7) [ng/mL]","time by which plasma concentrations declined to below the lower limit of quantification ([1]; post dosing, lower limit of quantification 0.1 ng/mL) [h]","EC50 ([2]; absence of histamine, read-out: agonist activity: inhibition of forskolin-induced cAMP levels (highest concentration without agonism)) [µM]",Ki [3] [µM],antagonist activity: shift of histamine EC50 (highest concentration without shift) [4] [µM],agonist activity: inhibition of forskolin-induced cAMP levels [2],Compound,overall membrane stabilization [5],stabilization effect added to that of placebo ([5]; 10× dose level),"degranulation at the highest concentration ([5]; […], DNP-HSA alone, MIP-1a alone, and co-stimulation)","cell stabilization compared to co-stimulation control and negative controls (placebo 10× and placebo 100×) ([5]; co-stimulation assay, concentrations of […] and […], p<0.0001 for both concentrations)"
7.23,3.23,2.71,≤ 12,> 100,> 10,> 100,,"CN1CCC(=C2c3ccccc3CCn3c(C(=O)O)cnc32)CC1 [6,11-dihydro-11-(1-methyl-4-piperdinylidene)-5H-imidazo[2,1-b][3]benazepine-3-carboxylic acid]",effective membrane stabilizing agents,enhanced the stabilization effect,unanticipated and significant degranulation,superior at cell stabilization
,,,,,,,agonist,"NCCc1c[nH]cn1 [histamine, reference compound]",,,,
